Measured values published in patent US12103915B2, “TEAD inhibitors and methods of uses thereof” (Insilico Medicine IP Limited, priority 2022, dated 2024).

Experiments:
NCI-H226 cells = experiment: Cell growth assay (CellTiter-Glo); type: cell-based, human; conditions: Homo sapiens, NCI-H226, 168 h, 7 days treatment, CellTiter-Glo luminescence, read-out: H226 CTG IC50
TEAD1 = TEAD1 (Homo sapiens, UniProt P28347); experiment: Thermal shift assay TEAD1; type: binding
In short: (§1)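 Protein melt reactions contained TEAD1 (0.2 mg/ml final) or TEAD2 (0.08 mg/ml final) plus compound at 1 or 10 μM in 0.1% DMSO. Thermal unfolding was followed by dye fluorescence on a qPCR instrument.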

TEAD2 = TEAD2 (Homo sapiens, UniProt Q15562); experiment: Thermal shift assay TEAD2; type: binding
TEAD2, sequence (Q15562 whole entry, species assumed): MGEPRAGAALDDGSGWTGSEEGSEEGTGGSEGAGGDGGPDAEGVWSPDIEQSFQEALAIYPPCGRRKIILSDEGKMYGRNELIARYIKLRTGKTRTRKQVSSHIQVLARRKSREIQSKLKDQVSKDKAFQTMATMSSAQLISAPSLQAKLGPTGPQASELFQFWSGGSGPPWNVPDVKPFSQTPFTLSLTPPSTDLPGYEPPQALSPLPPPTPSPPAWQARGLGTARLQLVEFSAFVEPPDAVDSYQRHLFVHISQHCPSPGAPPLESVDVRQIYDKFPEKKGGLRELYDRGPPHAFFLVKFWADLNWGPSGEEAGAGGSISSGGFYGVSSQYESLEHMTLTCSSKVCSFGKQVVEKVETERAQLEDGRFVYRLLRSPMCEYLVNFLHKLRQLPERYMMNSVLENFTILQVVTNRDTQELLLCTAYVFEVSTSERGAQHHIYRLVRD
In short: as §1

TEAD3 = TEAD3 (Homo sapiens, UniProt Q99594); experiment: Thermal shift assay TEAD3; type: binding
TEAD3, sequence (Q99594 whole entry, species assumed): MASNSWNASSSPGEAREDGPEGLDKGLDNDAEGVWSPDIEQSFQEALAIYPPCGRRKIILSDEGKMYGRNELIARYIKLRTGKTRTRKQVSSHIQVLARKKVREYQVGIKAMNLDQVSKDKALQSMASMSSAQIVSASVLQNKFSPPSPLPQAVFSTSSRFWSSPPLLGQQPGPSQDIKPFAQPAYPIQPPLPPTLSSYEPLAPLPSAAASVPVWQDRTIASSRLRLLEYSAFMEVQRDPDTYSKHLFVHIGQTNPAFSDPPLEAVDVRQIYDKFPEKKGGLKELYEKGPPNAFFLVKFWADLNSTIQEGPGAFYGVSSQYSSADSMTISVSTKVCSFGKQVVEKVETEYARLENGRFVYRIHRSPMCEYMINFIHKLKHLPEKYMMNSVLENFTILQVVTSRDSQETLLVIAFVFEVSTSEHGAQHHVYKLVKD
In short: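 Compounds at 1 or 10 μM (0.1% DMSO, PBS dilution) mixed with 0.1 mg/ml final TEAD3 and thermal shift dye, then run through a qPCR melt to follow protein unfolding.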

TEAD4 = TEAD4 (Homo sapiens, UniProt Q15561); experiment: Thermal shift assay TEAD4; type: binding
TEAD4, sequence (Q15561 whole entry, species assumed): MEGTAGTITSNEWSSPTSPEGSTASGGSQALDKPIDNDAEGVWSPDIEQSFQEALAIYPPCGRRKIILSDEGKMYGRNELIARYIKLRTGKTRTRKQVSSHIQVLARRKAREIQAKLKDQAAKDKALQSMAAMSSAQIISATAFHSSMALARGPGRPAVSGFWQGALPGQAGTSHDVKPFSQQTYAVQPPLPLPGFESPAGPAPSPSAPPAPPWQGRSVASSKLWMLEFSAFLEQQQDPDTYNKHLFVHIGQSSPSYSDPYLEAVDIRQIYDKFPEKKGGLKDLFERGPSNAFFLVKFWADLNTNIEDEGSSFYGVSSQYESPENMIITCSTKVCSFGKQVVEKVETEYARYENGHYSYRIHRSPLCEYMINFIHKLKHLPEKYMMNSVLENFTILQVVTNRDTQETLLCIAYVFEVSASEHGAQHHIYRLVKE
In short: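 Compounds tested at 1 and 10 μM (0.1% DMSO, PBS) against TEAD4 protein at 0.1 mg/ml final. Melting followed by thermal shift dye fluorescence during a qPCR instrument ramp.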

[1] = Pharmacokinetic profile evaluation in mice; type: in vivo, CD-1 mice; conditions: CD-1; mouse, oral administration at 10 mg/kg, plasma
Description: Example C: Pharmacokinetic Profile Evaluation
Three CD-1 mice of SPF. (Sino-British SIPPR/BK Lab Animal Ltd, Shanghai.) were intravenously administrated with given compounds (Formulation: 5% DMSO+10% Solutol+85% Saline) or orally gavage administrated with given compounds (Formulation: 5% DMSO+10% Solutol+85% Saline). The blood samples were taken via cephalic vein at timepoints 0.083 h, 0.25 h, 0.5 h, 1 h, 2 h, 4 h, 8 h, and 24 h after intravenous (iv) administration or at timepoints 0.25 h, 0.5 h, 1 h, 2 h, 4 h, 6 h, 8 h, and 24 h after oral gavage administration, 30 μL/time point. Blood samples were placed in tubes containing K2-EDTA and stored on ice until centrifuged. The blood samples were centrifuged at 6800 g for 6 minutes at 2-8° C. within 1 h after collected and stored frozen at approximately −80° C. An aliquot of 20 μL plasma samples were protein precipitated with 400 μL MeOH in which contains 100 ng/mL Verapamil (IS). The mixture was vortexed for 1 min and centrifuged at 18000 g for 10 min. Transfer 400 μL supernatant to 96 well plates. An aliquot of 5 μL supernatant was injected for LC-MS/MS analysis by LC-MS/MS-27 (TQ6500+) instrument. The analytical results were confirmed using quality control samples for intra-assay variation. The accuracy of >66.7% of the quality control samples should be between 80-120% of the known value(s). Standard set of parameters including Area Under the Curve (AUC(0-t)), maximum plasma concentration (Cmax), elimination half-life (T1/2) will be calculated using noncompartmental analysis modules in FDA certified pharmacokinetic program Phoenix WinNonlin 7.0 (Pharsight, USA).

TEAD1, sequence (P28347 whole entry, species assumed): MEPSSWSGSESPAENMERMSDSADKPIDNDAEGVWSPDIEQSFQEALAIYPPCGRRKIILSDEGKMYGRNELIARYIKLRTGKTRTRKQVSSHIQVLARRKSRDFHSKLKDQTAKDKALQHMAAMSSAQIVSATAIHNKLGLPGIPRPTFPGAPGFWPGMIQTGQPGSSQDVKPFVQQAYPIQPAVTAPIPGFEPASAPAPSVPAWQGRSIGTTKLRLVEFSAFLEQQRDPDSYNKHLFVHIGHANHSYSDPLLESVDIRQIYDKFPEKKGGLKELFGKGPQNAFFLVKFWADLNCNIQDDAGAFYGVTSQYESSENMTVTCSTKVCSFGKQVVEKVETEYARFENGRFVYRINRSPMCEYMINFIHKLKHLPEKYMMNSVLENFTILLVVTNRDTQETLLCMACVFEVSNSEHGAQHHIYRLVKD

| SMILES | IC50 (NCI-H226 cells) [nM] | TEAD1 ΔTm (TEAD1) [°C] | TEAD2 ΔTm (TEAD2) [°C] | TEAD3 ΔTm (TEAD3) [°C] | TEAD4 ΔTm (TEAD4) [°C] | AUC(0-t) [1] [µg·h/mL] | Cmax [1] [ng/mL] | half-life [1] [h] |
| --- | --- | --- | --- | --- | --- | --- | --- | --- |
| Cn1cc2cc(-c3ccc(C(F)(F)F)cc3)cc(C3C[C@H]3C(=O)O)c2n1 (mixture of isomers) [Example 2] | < 100 | 8.1 | 7 | 2.7 | 11.4 | 104 | 9750 | 5.4 |
| Cn1cc2cc(Oc3ccc(C(F)(F)F)cc3)cc(C3C[C@H]3C(=O)O)c2n1 (mixture of isomers) [Example 16] | 100 to 500 | 11.6 | 12.7 | 13.1 | 11.8 | 676 | 40100 | 26.4 |
| O=C(O)[C@@H]1CC1c1cc(Oc2ccc(C(F)(F)F)cc2)cc2cccnc12 (mixture of isomers) [Example 17] | 100 to 500 | 9.2 | 14.2 | 11.7 | 10.1 | 497 | 33700 | 26 |
| Cn1ncc2c(C3C[C@H]3C(=O)O)cc(Oc3ccc(C(F)(F)F)cc3)cc21 (mixture of isomers) [Example 18] | 100 to 500 | 8.8 | 14 | 7.4 | 9.1 | 617 | 41200 | 11.2 |
| CNC(=O)[C@@H]1CC1c1cc(-c2ccc(C(F)(F)F)cc2)cc2c1cnn2C (mixture of isomers) [Example 24] | 100 to 500 | 2.4 | 4.5 | 0.3 | 2.4 | 70 | 5530 | 5.2 |
| CNC(=O)[C@H]1C[C@@H]1c1cc(Oc2ccc(C(F)(F)F)cc2)cc2cn(C)nc12 (single isomer, unassigned) [Example 34b] | < 100 | 10.2 | 14.2 | 10.9 | 11.3 | 31.8 | 3180 | 2.2 |
| Cn1cc2cc(Oc3ccc(C(F)(F)F)cc3)cc(C3C[C@H]3C(=O)N3C[C@@H]4C[C@H]3C[C@@H]4O)c2n1 (single isomer, unassigned) [Example 103f] | < 100 | 8.2 | 9.8 | 9.2 | 11.1 | 51.6 | 4120 | 4.8 |
| CO[C@@H]1CN(C(=O)[C@@H]2C[C@H]2c2cc(Oc3ccc(C(F)(F)F)cc3)cc3cn(C)nc23)C[C@H]1O (single isomer, unassigned) [Example 112b] | < 100 | 8.4 | 10.2 | 1.9 | 10.1 | – | – | – |
| Cn1cc2cc(Oc3ccc(C(F)(F)F)cc3)cc([C@@H]3C[C@H]3C(=O)N3CC4CC3C(=O)N4)c2n1 (single isomer, unassigned) [Example 121] | < 100 | 7.9 | 10.6 | 2.0 | 8.9 | – | – | – |
| Cn1cc2cc(Oc3ccc(C(F)(F)F)cc3)cc([C@@H]3C[C@H]3C(=O)N3CC4CC(C3)N4)c2n1 (single isomer, unassigned) [Example 123] | < 100 | 7.7 | 9.1 | 1.8 | 9.2 | – | – | – |
| CN(C#N)C(=O)[C@@H]1C[C@H]1c1cc(Oc2ccc(C(F)(F)F)cc2)cc2cn(C)nc12 (single isomer, unassigned) [Example 124] | 1000 to 30000 | 6.0 | 9.8 | 1.0 | 7.7 | – | – | – |
| Cn1cc2cc(Oc3ccc(C(F)(F)F)cc3)cc([C@@H]3C[C@H]3C(=O)NCCO)c2n1 (single isomer, unassigned) [Example 125] | < 100 | 9.1 | 11.9 | 9.3 | 9.6 | – | – | – |
| Cn1cc2cc(Oc3ccc(C(F)(F)F)c(F)c3)cc([C@@H]3C[C@H]3C(=O)N3CC(O)C3)c2n1 (single isomer, unassigned) [Example 132] | < 100 | 10.9 | 15.8 | 13.9 | 13.7 | – | – | – |
| Cn1cc2cc(Oc3ccc(C(F)(F)F)cc3)cc([C@@H]3C[C@H]3C(=O)N=S(C)(C)=O)c2n1 (single isomer, unassigned) [Example 134] | < 100 | 6.8 | 6.0 | 1.5 | 5.8 | – | – | – |
| Cn1cc2cc(Oc3ccc(C(F)(F)F)cc3)cc([C@@H]3C[C@H]3C(=O)N3CCC34CC(=O)C4)c2n1 (single isomer, unassigned) [Example 135] | 100 to 500 | 25.0 | 25.0 | 18.0 | 6.9 | – | – | – |
| Cn1cc2cc(Oc3ccc(Cl)cc3)cc([C@@H]3C[C@H]3C(=O)N3C[C@@H]4C[C@H]3C[C@@H]4O)c2n1 (single isomer, unassigned) [Example 139] | < 100 | 5.5 | 9.2 | 2.8 | 7.6 | – | – | – |
| Cn1cc2cc(Oc3ccc(C(F)(F)F)c(F)c3)cc([C@@H]3C[C@H]3C(=O)N3C[C@@H]4C[C@H]3C[C@@H]4O)c2n1 (single isomer, unassigned) [Example 140] | < 100 | 7.6 | 11.1 | 8.9 | 10.6 | – | – | – |
| CN(C)C(=O)[C@@H]1C[C@H]1c1cc(Oc2ccc(C(F)(F)F)c(F)c2)cc2cn(C)nc12 (single isomer, unassigned) [Example 141] | < 100 | 9.3 | 16.2 | 11.4 | 12.0 | – | – | – |
| CNC(=O)[C@@H]1CC1c1cc(-c2ccc(C(F)(F)F)cc2)cc2c1cnn2C (stereo partly shown) [Example 40] | 100 to 500 | 1.9 | 2.7 | 0.2 | 0.7 | – | – | – |
| CNS(=O)(=O)/C=C/c1cc(-c2ccc(C(F)(F)F)cc2)cc2c1cnn2C [Example 41] | < 100 | 2.1 | 1.2 | 0.7 | 1.4 | – | – | – |
| CNS(=O)(=O)CCc1cc(-c2ccc(C(F)(F)F)cc2)cc2c1cnn2C [Example 42] | < 100 | 7.3 | 4.1 | 3.5 | 3.8 | – | – | – |
| CC(=O)NS(=O)(=O)CCc1cc(-c2ccc(C(F)(F)F)cc2)cc2cn(C)nc12 [Example 46] | 1000 to 30000 | 10.4 | 10.9 | 7.2 | 11.2 | – | – | – |
| CNS(=O)(=O)CCCc1cc(-c2ccc(C(F)(F)F)cc2)cc2cn(C)nc12 [Example 47] | 1000 to 30000 | 4.7 | 1.9 | −0.8 | 5.7 | – | – | – |
| CNS(=O)(=O)CCc1cc(N2CCC3(CCCC3)CC2)cc2cn(C)nc12 [Example 48] | 1000 to 30000 | 6.3 | 9.4 | 1.9 | 8.4 | – | – | – |
| CNS(=O)(=O)CCc1cc(Oc2ccc(C(F)(F)F)cc2)cc2cccnc12 [Example 142] | 100 to 500 | 8.9 | 11.4 | 10.2 | 9.7 | – | – | – |
| CNS(=O)(=O)CCc1cc(Oc2ccc(C(F)(F)F)cc2)cc2c1NCCC2 [Example 143] | < 100 | 9.6 | 13.2 | 10.3 | 8.8 | – | – | – |
